The values below come from US8198317B2, “Methylenedioxy phenolic compounds and their use to treat disease” (The Ohio State University Research Foundation, priority 2008, dated 2012).

SMILES strings stand for the structures.

One assay has as its target T1, human full length PPARα (Homo sapiens, UniProt Q07869).
T1 construct: HepG2 cells transfected by full length human PPARα linked to luciferase reporter; expressed in transfected cells; host or cells: HepG2
T1 sequence (Q07869 1-468): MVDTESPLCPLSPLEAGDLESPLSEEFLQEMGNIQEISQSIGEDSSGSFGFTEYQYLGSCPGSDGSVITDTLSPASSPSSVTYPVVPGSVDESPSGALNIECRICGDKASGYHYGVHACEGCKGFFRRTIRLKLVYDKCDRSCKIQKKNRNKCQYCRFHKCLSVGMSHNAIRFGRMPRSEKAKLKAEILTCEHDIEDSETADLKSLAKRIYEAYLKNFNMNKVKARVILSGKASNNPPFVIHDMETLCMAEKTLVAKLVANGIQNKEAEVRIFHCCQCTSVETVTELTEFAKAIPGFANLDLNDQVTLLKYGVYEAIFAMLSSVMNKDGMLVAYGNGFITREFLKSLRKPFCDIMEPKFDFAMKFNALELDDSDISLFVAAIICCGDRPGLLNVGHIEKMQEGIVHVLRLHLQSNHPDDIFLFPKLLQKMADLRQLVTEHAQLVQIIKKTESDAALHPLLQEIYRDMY
Put plainly: PPARα promoter-reporter luciferase assay in HepG2 cells. It is filed as cell-based. The text has this:
HepG2 cells were transfected with the full length PPARα promoter reporter construct and stimulated by INV-75 ([…]). Results in C are expressed as % increase compared to WY 14643.
We used a reporter gene assay in HepG2 cells to screen for agonists of the peroxisome proliferator-activated receptors. Peroxisome proliferator-activated receptors (PPARs) and other members of the nuclear hormone receptor family are important drug targets for the treatment of metabolic diseases. PPARs play crucial roles in lipid and glucose metabolism, respectively. Therefore, screening methods that help to rapidly identify activators of these receptors should be of considerable value. INV-75 activated a classic PPARα gene, Acetyl-CoA Oxidase (ACO) in a dose dependent and time dependent fashion (FIG. 6A). The time course experiment was performed in presence of INV-75 up to 15 hours. […] We next tested the specificity of INV-75 for PPARα by performing experiments in HepG2 cells transfected with yeast GAL4-PPARα-LBD plasmid+UAS-Luciferase; GAL4-PPARδ-LBD plasmid+UAS-Luciferase and […]. The PPARα, PPARδ and PPARγ binding assays were performed using multiple concentrations of INV-75 (1 μM, 10 μM, 100 μM and 1000 μM). The level of luciferase activity corresponded to the degree of PPAR activation. The results were compared with classic PPAR agonists such as WY-14643 (PPARα agonist), Bezafibrate (PPARδ agonist) and Rosiglitazone ([…]).

A further assay concerns SREBP-1. Put plainly: SREBP-1 regulation in HepG2 cells. It is filed as cell-based, human. Particulars: data not shown. The text has this:
(§1) Next we investigated the effect of INV-75 in regulating LDL receptor expression in the same cells using a similar protocol to assess dose and temporal dependence. FIGS. 5E and 5F depict the time course of LDL receptor expression and dose dependence in response to INV-75. […] INV-75 had no effects on SREBP-1 regulation (data not shown). Simultaneously multiple genes involved in cholesterol synthesis and regulation, apolipoprotein gene expression and expression of PCSK9 (Proprotein convertase subtilisin/kexin type 9) was tested. The latter gene is known to regulate LDL receptor expression by binding to the epidermal growth factor-like repeat A (EGF-A) domain of the low-density lipoprotein receptor (LDLR), inducing LDLR degradation. Inhibition of PSCK9 function is currently being explored as a means of lowering cholesterol levels.

The subject of a further assay is VCAM-1. Put plainly: VCAM-1 western blot in TNFα treated HUVECs. The format is cell-based, human. As for the experimental part: FIG. 25 is a graph showing VCAM-1 protein expression level as a cellular correlate of inflammation. INV-75 inhibits TNFα induced VCAM-1 expression in HUVECs. HUVECs were pretreated with vehicle, INV75, or WY-14643 for 2 hours, and then treated with TNFα for 4 hours. VCAM-1 expression was analyzed by Western blot. A representative and summary of three independent experiments are presented. *, p<0.05 vs control; #, p<0.05 vs TNFα.
In subsequent experiments we also tested the effects of INV-75 on VCAM-1 expression by western blot.
We have also examined the effects of INV-75 in cell culture to understand its effects on regulation of the adhesion molecule VCAM-1. We had previously shown that iNV-75 reduced NF-kB activation and expression of VCAM-1 and ICAM-1 in HUVEC cells (see FIG. 3 and FIG. 4). […] HUVECs were pretreated with vehicle, INV-75, or WY-14643 for 2 hours, and then treated with TNFα for 4 hours. VCAM-1 expression was analyzed at the end of this duration. A representative and summary of three independent experiments are presented. *, p<0.05 vs control; #, p<0.05 vs TNFα (FIG. 25).
A general note: Immunoblotting shows a protein as a band on a membrane.

In another assay the test system is PCSK9. The assay is described as follows: PCSK9 expression in HepG2 cells. The format is cell-based, human.
Text: as §1

The next assay concerns Patient. The assay is described as follows: Treatment of a patient with chronic stable angina (Example 20). Particulars: oral, 1.0 to 100 mg/kg, two weeks. The format is in vivo, human. The protocol: A person with a prior history of a heart attack (myocardial infarction) 10 years ago presents for evaluation. They are complaining of anginal chest pains that are relived with one sub-lingual nitroglycerin and has had these pains chronically. The patient is administered a composition comprising an effective amount of oral 3,4-Methylenedioxy 6-nitro phenyl lipoate (INV-7465) (1.0 to 100 mg/kg). Alternate therapies include, 3,4-methylenedioxy phenyl acetate (INV 73); 3,4-methylenedioxy-6-nitrophenol (INV 74); 3,4-methylenedioxy-6-nitrophenyl acetate (INV 75); or 3,4-Methylenedioxy phenyl lipoate (INV-7065). Patient notes added benefit in their chest pains with this regimen after taking the medication for two weeks.

Regarding `CC(=O)Oc1cc2c(cc1[N+](=O)[O-])OCO2` [INV-75, 3,4-methylenedioxy-6-nitrophenyl acetate], the luciferase activation result on human full length PPARα (HepG2 transfected with PPARα promoter-reporter construct) is recorded as “increased”. For the same molecule, at human full length PPARα (time course), the “persistence of effects on PPARα activation” value is given as “up to 15 hours” and the “time of onset of PPARα activation” value is under 1 h. The SREBP-1 regulation result in the assay on SREBP-1 was “no effects”. Moreover, the “TNFα induced VCAM-1 expression” value with VCAM-1 (HUVECs pretreated 2 hours, then TNFα 4 hours) was “inhibits”. The “VCAM-1 protein levels by western blot” value in the assay on VCAM-1 (pre-treatment versus control (vehicle)) is “reduction”. The PCSK9 expression entry with PCSK9 is reported as “no effects”.
In the case of `O=C(CCCCC1CCSS1)Oc1cc2c(cc1[N+](=O)[O-])OCO2` (centres unmarked) [INV-7465, 3,4-Methylenedioxy 6-nitro phenyl lipoate], in the assay on Patient, the chest pains result is recorded as “added benefit”.
